Source: publication PMC6582342 (Nucleic Acids Research, 2019)

Molecular target: T1, TcEIF4E5 (Trypanosoma cruzi, UniProt A0A2V2VRR6)
T1 sequence (A0A2V2VRR6 1-200): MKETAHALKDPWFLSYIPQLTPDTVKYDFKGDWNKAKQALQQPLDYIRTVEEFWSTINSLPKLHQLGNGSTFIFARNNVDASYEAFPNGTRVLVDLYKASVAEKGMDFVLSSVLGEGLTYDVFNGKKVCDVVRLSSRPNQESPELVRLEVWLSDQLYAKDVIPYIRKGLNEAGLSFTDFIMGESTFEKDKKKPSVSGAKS
Assay: X-ray crystal structure
Type: binding

C[n+]1cn([C@@H]2O[C@H](COP(=O)(O)OP(=O)(O)OP(=O)(O)O)[C@@H](O)[C@H]2O)c2nc(N)[nH]c(=O)c21 [m7GTP]
Kd: 21 ± 7 µM
